What was measured:
GIRK channels [1] = assay: Direct GIRK channel block by haloperidol; assay type: cell-based; settings: haloperidol at 3 µM; n = 4
GIRK channels [2] = settings: haloperidol at 1 µM; cited from earlier work
D2R = settings: 1 µM haloperidol; 100 nM DA; cited from earlier work
[3] = target: T1, D2R S193^5.42A (human dopamine D2S receptor mutant) (Homo sapiens, UniProt P14416, S193A); assay: cell-based
Experimental: (§1) A straight line was fitted to the data over the linear range of the relation between kobs and agonist concentration and the slope was taken as a measure of kon.
(§2) Experiments were performed using a perfusion rate of 4.5 mL/min. […] Note the logarithmic y-axis. […] Data are presented as mean ± SEM.
(§3) Association rate constant estimates were derived from recordings of GIRK current activation in response to applications of various agonist concentrations. Monoexponential functions were fit to cover 80% of the current increase in response to agonist using Levenberg–Marquardt least-squares fitting in Clampfit 10, outputting the activation time constant, τact. […] However, rather than using Equation (2), koff was calculated separately from the response decay time constant upon agonist washout, τdeact, as described above.
Kinetic Kds were calculated as:Kd = koff/kon(3)

[4] = target: T2, WT D2R (human dopamine D2S receptor) (Homo sapiens, UniProt P14416); assay: GIRK current deactivation following agonist washout (koff estimate), WT D2R; assay type: cell-based
T2 sequence (P14416 1-414 isoform P14416-2): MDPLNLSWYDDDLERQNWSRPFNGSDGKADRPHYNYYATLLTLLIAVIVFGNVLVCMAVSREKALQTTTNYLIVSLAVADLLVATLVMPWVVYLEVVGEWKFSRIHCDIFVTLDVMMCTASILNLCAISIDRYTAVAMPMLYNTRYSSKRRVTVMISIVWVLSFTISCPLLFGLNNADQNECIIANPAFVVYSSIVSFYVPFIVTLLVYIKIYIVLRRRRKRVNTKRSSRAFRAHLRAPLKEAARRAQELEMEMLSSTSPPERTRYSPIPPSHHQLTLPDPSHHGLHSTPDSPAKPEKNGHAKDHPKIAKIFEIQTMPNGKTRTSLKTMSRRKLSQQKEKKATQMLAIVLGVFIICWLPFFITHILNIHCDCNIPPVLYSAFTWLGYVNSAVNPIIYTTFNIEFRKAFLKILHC
Experimental: We obtained such estimates of koff by analyzing the washout phase following short (13 s) applications of submaximally effective agonist concentrations (see legend of Figure 2) in oocytes co-expressing WT D2R with GIRK1/4 and RGS4.
Experiments were performed using a perfusion rate of 4.5 mL/min. Data are presented as mean ± SEM.
(§4) Injected cells were incubated for another 6 days at 12 °C in modified Barth’s solution (MBS), composed of (in mM): 88 NaCl, 1 KCl, 2.4 NaHCO3, 15 HEPES, 0.33 Ca(NO3)2, 0.41 CaCl2, 0.92 MgSO4, and 2.5 sodium pyruvate, supplemented with 25 U/mL penicillin and 25 µg/mL streptomycin and adjusted to pH 7.6 with NaOH. […] For each concentration of agonist, the relative current amplitude after 60 s (when a steady-state response had been achieved) of agonist perfusion was plotted to generate the concentration-response relationships. Oocytes were selected for electrophysiology recordings based on having holding currents at −40 mV of less than 0.5 µA. Likewise, recordings where holding currents at −40 mV were greater than 0.5 µA after data acquisition at −80 mV were discarded.

[5] = target: T2, WT D2R (human dopamine D2S receptor); assay: GIRK current activation rate (kobs) vs agonist concentration (kon estimate), WT D2R; assay type: cell-based
Experimental: as §1, §2, §3

[6] = target: T1, D2R S193^5.42A (human dopamine D2S receptor mutant); assay: cell-based; settings: for EC50: GIRK activation, perfusion 1 mL/min
Experimental: (§5) Following agonist application to Xenopus oocytes expressing D2R and GIRK1/4 subunits, Gβγ subunits released from activated Gi/o protein heterotrimers open the GIRK channels. […] Here, we used the GIRK current in oocytes voltage-clamped at −80 mV and superfused with a high-K^+ buffer (25 mM KCl) as a readout of agonist binding to D2R.
(§6) Thus, increasing agonist concentrations were applied consecutively to voltage-clamped oocytes expressing WT D2R, RGS4, and GIRK1/4. […] A representative trace of currents measured during p-tyramine concentration–response data acquisition is shown in Supplementary Figure S1).
as §4
(§7) Agonist concentration–response relationships were analyzed by fitting sigmoidal functions using nonlinear regression in GraphPad Prism 8 (GraphPad Software, San Diego, CA, USA).

[7] = target: T2, WT D2R (human dopamine D2S receptor); assay: cell-based
Experimental: as §5, §6, §4, §7

[8] = target: T1, D2R S193^5.42A (human dopamine D2S receptor mutant); assay: cell-based; settings: read-out: koff ± SEM
D2R S193^5.42A = settings: cited from earlier work

T1 sequence (P14416 1-414 isoform P14416-2 S193A): as the sequence (P14416 1-414 isoform P14416-2) above, with S193A counted along it

| Kd [3] [µM] | kon ([3]; read-out: kon ± SEM) [M⁻¹ s⁻¹] | koff [4] [s⁻¹] | Kd ([5]; Kd = koff/kon, read-out: pKd ± SEM (kinetic Kd) (converted)) [µM] | kon ([5]; slope of linear fit of kobs vs agonist concentration, perfusion 4.5 mL/min) [M⁻¹ s⁻¹] | EC50 ([6]; EC50, S193^5.42A D2R) [µM] | Relative efficacy (fitted Top) ([6]; S193^5.42A D2R, normalized to the response evoked by 300 µM DA) | fold increase of DA-normalized agonist efficacy at S193^5.42A ([6]; S193^5.42A vs WT D2R) [fold] | EC50 ([6]; pEC50 ± SEM, S193^5.42A D2R) [µM] | EC50 [7] [µM] | Relative efficacy (fitted Top) ([7]; WT D2R, normalized to the response evoked by 1 µM DA) | koff [8] [s⁻¹] | Compound | direct GIRK current block (GIRK channels [1]) [%] | GIRK channel block (GIRK channels [2]) | block of the GIRK response to DA (D2R) | decrease of affinity by alanine mutation of S193^5.42 (D2R S193^5.42A) |
| --- | --- | --- | --- | --- | --- | --- | --- | --- | --- | --- | --- | --- | --- | --- | --- | --- |
| – | – | – | – | – | – | – | – | – | – | – | – | O=C(CCCN1CCC(O)(c2ccc(Cl)cc2)CC1)c1ccc(F)cc1 [haloperidol] | 5.9 ± 0.2 | negligible | fully blocks | – |
| 11.7 | 9410 ± 2.34e+06 | 0.123 ± 0.008 | 24.5 | 4940 ± 1.15e+06 | 47.9 | 0.37 ± 0.01 | 4.1 | 47.9 | 100 | 0.09 ± 0.01 | 0.112 ± 0.008 | NCCc1ccc(O)cc1 [p-tyramine] | – | – | – | less than twofold |

— article PMC8071183 (International Journal of Molecular Sciences, 2021)
